Results from ChEMBL document CHEMBL1201862, “PubChem BioAssay data set” (2004).
Active and inactive are the calls of the source.

Experiments:
Caspase-3 = target: T1, Caspase-3 (Homo sapiens, UniProt P42574); format: functional;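 also: Dose-response selectivity test against caspase-3 for candidate inhibitors of sentrin-specific proteases (SENPs)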
T1 sequence (P42574 whole entry): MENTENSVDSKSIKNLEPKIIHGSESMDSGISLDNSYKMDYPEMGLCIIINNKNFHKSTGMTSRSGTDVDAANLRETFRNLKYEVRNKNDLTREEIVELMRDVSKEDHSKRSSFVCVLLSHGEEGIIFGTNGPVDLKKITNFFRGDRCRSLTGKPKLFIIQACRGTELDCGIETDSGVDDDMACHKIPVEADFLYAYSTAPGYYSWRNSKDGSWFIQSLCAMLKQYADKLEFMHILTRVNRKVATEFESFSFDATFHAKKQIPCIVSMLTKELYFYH

[1] = target: T2, Sentrin-specific protease 7 (Homo sapiens, UniProt Q9BQF6); format: functional;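 also: Luminescence-based dose-response confirmation of ultra-high-throughput screening hits, measuring inhibition of SENP7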
T2 sequence (Q9BQF6 whole entry): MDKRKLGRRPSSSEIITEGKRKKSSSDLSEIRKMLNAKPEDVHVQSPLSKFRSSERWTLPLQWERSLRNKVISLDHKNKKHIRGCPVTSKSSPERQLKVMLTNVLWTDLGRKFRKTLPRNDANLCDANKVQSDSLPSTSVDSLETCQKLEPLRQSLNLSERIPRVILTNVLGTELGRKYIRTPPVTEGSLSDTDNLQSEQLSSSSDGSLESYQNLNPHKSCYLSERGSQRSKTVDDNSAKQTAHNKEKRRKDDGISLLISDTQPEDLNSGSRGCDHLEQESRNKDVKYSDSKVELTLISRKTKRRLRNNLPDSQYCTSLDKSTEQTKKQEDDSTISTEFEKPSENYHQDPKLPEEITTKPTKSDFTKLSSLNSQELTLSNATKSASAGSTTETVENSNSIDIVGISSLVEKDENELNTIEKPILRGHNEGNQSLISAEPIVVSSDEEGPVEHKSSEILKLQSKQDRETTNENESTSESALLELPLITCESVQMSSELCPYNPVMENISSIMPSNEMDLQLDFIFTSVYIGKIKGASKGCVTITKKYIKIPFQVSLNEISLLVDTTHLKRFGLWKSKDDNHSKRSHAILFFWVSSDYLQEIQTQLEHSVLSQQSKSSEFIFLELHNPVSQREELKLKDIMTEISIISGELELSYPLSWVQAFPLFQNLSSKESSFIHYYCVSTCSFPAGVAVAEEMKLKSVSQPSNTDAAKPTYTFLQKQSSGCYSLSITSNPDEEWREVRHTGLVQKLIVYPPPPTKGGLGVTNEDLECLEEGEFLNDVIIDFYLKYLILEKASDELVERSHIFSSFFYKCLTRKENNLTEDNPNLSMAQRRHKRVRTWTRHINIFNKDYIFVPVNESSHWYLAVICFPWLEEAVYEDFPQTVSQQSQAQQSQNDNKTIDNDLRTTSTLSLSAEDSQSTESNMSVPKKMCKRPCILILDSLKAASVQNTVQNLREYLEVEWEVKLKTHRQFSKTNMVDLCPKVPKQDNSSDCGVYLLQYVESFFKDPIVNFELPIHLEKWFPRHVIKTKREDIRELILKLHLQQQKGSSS

[2] = target: T3, Sentrin-specific protease 6 (Homo sapiens, UniProt Q9GZR1); format: functional;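 also: Luminescence-based dose-response confirmatory assay of SENP6 inhibition, following up an ultra-high-throughput screen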
T3 sequence (Q9GZR1 whole entry): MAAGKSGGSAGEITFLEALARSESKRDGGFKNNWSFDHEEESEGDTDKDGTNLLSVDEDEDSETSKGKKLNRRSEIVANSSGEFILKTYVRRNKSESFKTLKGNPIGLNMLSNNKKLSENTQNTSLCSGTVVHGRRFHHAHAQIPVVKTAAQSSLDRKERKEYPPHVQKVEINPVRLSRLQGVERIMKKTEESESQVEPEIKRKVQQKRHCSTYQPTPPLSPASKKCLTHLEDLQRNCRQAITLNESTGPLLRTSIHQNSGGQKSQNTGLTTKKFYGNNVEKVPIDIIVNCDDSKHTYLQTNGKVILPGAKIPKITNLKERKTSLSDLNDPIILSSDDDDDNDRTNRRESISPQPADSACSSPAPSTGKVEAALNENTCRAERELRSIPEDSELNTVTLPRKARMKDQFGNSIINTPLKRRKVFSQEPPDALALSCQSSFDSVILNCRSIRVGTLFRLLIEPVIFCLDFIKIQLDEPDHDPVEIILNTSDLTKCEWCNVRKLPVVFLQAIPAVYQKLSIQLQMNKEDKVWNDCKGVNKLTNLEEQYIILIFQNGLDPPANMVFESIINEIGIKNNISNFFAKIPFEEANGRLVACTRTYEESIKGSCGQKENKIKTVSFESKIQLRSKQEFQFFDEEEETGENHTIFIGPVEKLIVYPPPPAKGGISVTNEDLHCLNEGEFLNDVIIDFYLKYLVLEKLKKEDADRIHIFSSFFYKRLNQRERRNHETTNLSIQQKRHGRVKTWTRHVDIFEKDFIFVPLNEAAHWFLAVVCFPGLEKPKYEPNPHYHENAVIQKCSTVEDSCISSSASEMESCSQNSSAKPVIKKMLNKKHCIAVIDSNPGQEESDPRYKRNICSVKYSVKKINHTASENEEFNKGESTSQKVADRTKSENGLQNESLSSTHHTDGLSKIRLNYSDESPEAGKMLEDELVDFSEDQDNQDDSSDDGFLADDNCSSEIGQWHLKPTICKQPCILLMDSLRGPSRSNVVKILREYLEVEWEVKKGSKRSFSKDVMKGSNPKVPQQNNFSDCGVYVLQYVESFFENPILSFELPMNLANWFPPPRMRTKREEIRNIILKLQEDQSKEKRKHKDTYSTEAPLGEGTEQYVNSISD

cells [3] = assay: cells
[4] = target: T4, Sentrin-specific protease 8 (Homo sapiens, UniProt Q96LD8); format: functional;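 also: luminescence read-out of SENP8 inhibition, dose-response confirmation following an ultra-high-throughput screen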
T4 sequence (Q96LD8 whole entry): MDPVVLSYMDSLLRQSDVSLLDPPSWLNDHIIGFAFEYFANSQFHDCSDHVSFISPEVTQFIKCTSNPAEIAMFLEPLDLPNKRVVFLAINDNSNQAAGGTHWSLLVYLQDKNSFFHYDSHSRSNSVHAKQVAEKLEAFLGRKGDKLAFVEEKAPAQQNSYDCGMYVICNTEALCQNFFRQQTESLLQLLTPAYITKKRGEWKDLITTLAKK

[5] = target: T5, Oxysterols receptor LXR-beta (Homo sapiens, UniProt P55055); format: functional, cell-based;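 also: Cell-based luminescence dose-response assay of agonist activity at LXR, run as a confirmatory counterscreen to a daf-12 agonist screen; HEK293 cells with Gal4-LXR fusion and GAL4-driven luciferase reporter; agonist potency from rising luciferase signal of a Gal4-LXR reporter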
T5 sequence (P55055 whole entry): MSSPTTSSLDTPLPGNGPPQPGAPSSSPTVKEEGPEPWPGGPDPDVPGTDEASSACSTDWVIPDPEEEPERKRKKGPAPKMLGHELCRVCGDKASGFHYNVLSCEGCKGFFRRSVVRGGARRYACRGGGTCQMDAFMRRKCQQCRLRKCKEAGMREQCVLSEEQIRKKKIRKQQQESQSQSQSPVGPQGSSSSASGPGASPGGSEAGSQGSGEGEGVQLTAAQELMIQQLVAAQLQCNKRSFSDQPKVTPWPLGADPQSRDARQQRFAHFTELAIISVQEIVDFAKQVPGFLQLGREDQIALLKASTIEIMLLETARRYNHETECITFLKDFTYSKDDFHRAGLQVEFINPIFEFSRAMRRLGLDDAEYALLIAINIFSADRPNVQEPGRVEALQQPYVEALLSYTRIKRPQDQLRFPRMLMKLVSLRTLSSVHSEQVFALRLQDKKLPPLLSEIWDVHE

[6] = HepG2 cell cytotoxicity, dose response, cytotoxicity control, plate reader, cherry-pick, antagonist series (AID 743416); format: functional, cell-based
[7] = MC4R antagonists, dose response, counter-screen for LGR2 antagonist project, cell-based, plate reader, cherry pick (AID 743444); format: functional;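 also: transfected HEK 293 cells stimulated with alpha-MSH peptide; potency of inhibitors of the alpha-MSH evoked signal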
[8] = LGR2 antagonists, dose response, cell-based, HEK293, CRE-luciferase reporter, cherry pick, set 2 (AID 743343); format: functional;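 also: transfected cells were stimulated with diluted bursicon conditioned medium after compound addition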
[9] = HEK293 cell cytotoxicity, dose response, cytotoxicity control, plate reader, cherry-picked samples (AID 743446); format: functional, cell-based
[10] = A549 cell cytotoxicity, dose response, cytotoxicity control, plate reader, cherry-pick, antagonist series (AID 743412); format: functional, cell-based
cells [11] = format: functional, cell-based
cells [12] = format: functional, cell-based; remark: listed apart in the source
[13] = target: T6, Trace amine-associated receptor 1 (Homo sapiens, UniProt Q96RJ0); assay: Counterscreen for agonists of the human trace amine associated receptor 1 (hTAAR1): Fluorescence-based cell-based high throughput dose response assay to identify hTAAR1 agonist that also desensitize TAAR1 receptor response.; format: functional
T6 sequence (Q96RJ0 whole entry): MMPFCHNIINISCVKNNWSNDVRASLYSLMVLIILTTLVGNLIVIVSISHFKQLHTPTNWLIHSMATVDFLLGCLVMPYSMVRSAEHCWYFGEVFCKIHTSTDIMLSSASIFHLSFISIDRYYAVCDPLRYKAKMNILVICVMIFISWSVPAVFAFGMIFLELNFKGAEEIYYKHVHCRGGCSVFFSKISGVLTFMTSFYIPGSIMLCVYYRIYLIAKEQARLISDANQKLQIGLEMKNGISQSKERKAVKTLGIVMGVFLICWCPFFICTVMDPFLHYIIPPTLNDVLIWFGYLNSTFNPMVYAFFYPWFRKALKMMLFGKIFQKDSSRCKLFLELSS

INS1 = assay: beta cell apoptosis inhibitors, cytokine rescue, dose response, luminescence, retest (AID 449756); format: functional, cell-based; details: Rattus norvegicus;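 also: cell death triggered by IL-1 beta plus TNF-alpha plus IFN-gamma mixture; protective hits raise ATP signal compared with cytokine alone wells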
Nonstructural protein 1 = Nonstructural protein 1 (Influenza A virus, UniProt Q194T2); format: functional, Influenza A virus (A/California/07/2009(H1N1))
[14] = target: T6, Trace amine-associated receptor 1; assay: Fluorescence-based cell-based high throughput dose response assay to identify agonists of the human trace amine associated receptor 1 (TAAR1).; format: functional
fMet-Leu-Phe receptor = target: T7, fMet-Leu-Phe receptor (Homo sapiens, UniProt P21462); assay: FPR ligands, dose response (AID 519); format: functional
T7 sequence (P21462 whole entry): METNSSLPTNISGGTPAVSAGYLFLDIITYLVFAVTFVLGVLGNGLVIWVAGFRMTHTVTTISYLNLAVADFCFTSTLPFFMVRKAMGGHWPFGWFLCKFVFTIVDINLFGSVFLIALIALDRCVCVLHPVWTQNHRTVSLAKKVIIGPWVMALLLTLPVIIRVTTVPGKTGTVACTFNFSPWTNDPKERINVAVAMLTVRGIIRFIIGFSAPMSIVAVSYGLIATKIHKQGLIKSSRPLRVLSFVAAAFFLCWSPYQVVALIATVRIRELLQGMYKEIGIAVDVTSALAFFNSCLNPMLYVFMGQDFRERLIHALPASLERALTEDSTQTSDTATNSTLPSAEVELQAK

Sequence of Nonstructural protein 1 (Q194T2 whole entry): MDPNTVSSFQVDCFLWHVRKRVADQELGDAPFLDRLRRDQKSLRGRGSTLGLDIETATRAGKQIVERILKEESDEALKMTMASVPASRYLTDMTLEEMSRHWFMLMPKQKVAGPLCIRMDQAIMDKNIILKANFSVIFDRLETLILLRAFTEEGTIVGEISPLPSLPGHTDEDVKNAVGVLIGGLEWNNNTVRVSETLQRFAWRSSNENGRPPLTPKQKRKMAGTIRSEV

NC(=O)c1c(NC(=O)c2ccccc2)sc2c1CCC2
IC50 (Caspase-3): 27.7 µM (active) | IC50 [1]: 7.52 µM (active) | IC50 [2]: > 100 µM (inactive) | EC50 (cells [3]): > 67.5 µM (inactive) | IC50 [4]: > 100 µM (inactive) | EC50 [5]: > 67.5 µM (inactive)

NC(=O)c1ccsc1NC(=O)c1ccc2c(c1)CCCC2
AC50 [6]: 42.4 µM (active) | AC50 [7]: 15.2 µM (active) | EC50 (cells [3]): > 67.5 µM (inactive) | AC50 [8]: 9.99 µM (active) | AC50 [9]: 31.4 µM (active) | EC50 [5]: > 67.5 µM (inactive) | AC50 [10]: 14.1 µM (active)

COc1cc(N/N=C/c2ccccc2O)ncn1
IC50 (cells [11]): > 29.9 µM (inactive) | EC50 (cells [12]): > 29.9 µM (inactive) | IC50 [13]: 6.63 µM (active) | AC50 (INS1): 3.67 µM (active) | IC50 (Nonstructural protein 1): 5.73 µM (active) | EC50 [14]: > 29.9 µM (inactive)

CC1=C(C#N)C(c2ccc3ncccc3c2)C(C#N)=C(C)N1
Ki (fMet-Leu-Phe receptor): > 66.7 µM (inactive)
